From US20200230207A1, “TREATMENT OF BONE GROWTH DISORDERS” (FONDAZIONE TELETHON, priority 2015, published 2020)
Square brackets hold non-standard residues; d marks the D form. Ends that are not written are not given here. Peptide text beside a SMILES is read from it. * marks the point of attachment. Cbz = O=C(OCc1ccccc1)*

What was measured:
MPSVII mice [1] = assay: Femur and tibia lengths in MPSVII mice; assay type: in vivo, mouse; conditions: 2 mg/kg i.p. daily, P15 and P30
Protocol: (§1) Control mice were injected with vehicle only. Mice were sacrificed after 15 (P15) and 30 (P30) days.
(§2) Skeletal staining: Skeletons were fixed in 95% ethanol overnight (ON) and stained with alcian blue and alizarin red according to standardized protocols (http://empress.har.mrc.ac.uk/browser/). Three to five mice of each genotype were analyzed per stage. Measurement of bone length was performed using ImageJ software.

MPSVII mice [2] = assay: Growth plate histology, BrDU index and collagen in MPSVII mice; assay type: in vivo, mouse; conditions: 2 mg/kg i.p. daily, P15
MPSVI mice = assay: Femur and tibia lengths in MPSVI mice; assay type: in vivo, mouse; conditions: 2 mg/kg i.p. daily for 15 days, P15
Protocol: as §1, §2

[3] = tested on: FGFR3ach and FGFR3TD chondrocytes; assay: LC3II in FGFR3 WT, FGFR3ach and FGFR3TD chondrocytes with lysosomal inhibitors; assay type: cell-based, rat; conditions: leupeptin 50 μM 2 h; bafilomycin 200 nM 4 h
Protocol: Bars graphs represent LC3II quantification relative to β-actin. […] Graphs show representative histograms.
Leupeptin and bafilomycin treatments: Leupeptin (Sigma) was resuspended in water at 10 mM. FGFR3 wild type, FGFR3ach and FGFR3TD stable chondrocytes cell line were treated with 50 μM leupeptin for 2 h at 37° C. Bafilomycin (Millipore) was resuspended in DMSO at 200 μM. FGFR3 wild type, FGFR3 ach and FGFR3TD stable chondrocytes cell line were treated with 200 nM bafilomycin for 4 h at 37° C.

Rx chondrocytes [4] = assay: Procollagen (PC2) secretion and trafficking in Rx chondrocytes; assay type: cell-based, rat
Protocol: FIG. 6: a, b, Quantification of secreted PC2 in control and Spautin-1-treated (24 h, 50 μM) (a) and Atg7-knockdown (KD; b) RCS chondrocytes after ER block release of PC2 (min). Ctrl, control. Mean values (±standard deviation (s.d.)) of 3 independent experiments. ANOVA, P=5.29×10^−5 (a), P=0.007 (b); Sidak post-hoc test, […], ***P<0.0005. c, PC2 localization in Golgi area and ER (HSP47) in vehicle and Spautin-1-treated (24 h, 50 μM) RCS chondrocytes 10 min after the ER block release of PC2. Bar graph represents the percentage (±s.d.) of cells containing PC2 in the indicated cellular compartment. N=60; n=3 independent experiments. Student's t-test, **P<0.005. Scale bar, 10 μm. d, Immunofluorescence of PC2, Sec31 and GFP-LC3 in RCS chondrocytes. The insets show higher magnification and single colour channels of the boxed area. N, nucleus. The data are representative of 5 independent experiments. Scale bar, 5 μm. e, Spinning-disk confocal image of RCS chondrocytes co-expressing GFP-LC3- and mCherry-PC2-tagged proteins. Arrows show PC2 molecules sequestered by GFP vesicles. The data are representative of 3 independent experiments. Scale bar, 10 μm. f, Time-lapse stills of PC2 and LC3 from the boxed region in e.
The insets show a high magnification of selected areas. […] The insets show a high magnification of selected areas. Red=collagen; Blue=DAPI. Scale bar 10 μm.
FIG. 14: a a, Immunofluorescence staining of HSP47 chaperone (red) in Atg7^fl/fl and Atg7^fl/fl; Prx1-Cre chondrocytes, showing altered HSP47 distribution in Prx1-Cre; Atg7^fl/fl chondrocytes. The data are representative of 3 independent experiments. Insets show a higher magnification of the boxed area. Scale bar, 10 μm. Blue, DAPI. b, Co-localization of PC2 with HSP47 in growth-plate chondrocytes of mice with indicated genotypes. The data are representative of 3 independent experiments. Scale bar, 20 μm. c, Altered HSP47 and PC2 trafficking in Spautin-1-treated chondrocytes. HSP47 and PC2 immunostaining in control (vehicle) or Spautin-1-treated RCS chondrocytes. Synchronized PC2 secretion was obtained after incubating chondrocytes for 3 h at 40° C. to block PC2 in the ER, and then shifting the temperature to 32° C. (ER block release) for 10 min. The data are representative of 2 independent experiments. Scale bar, 10 μm. d, Proposed model of autophagy function in chondrocytes. Autophagy in chondrocytes prevents PC2 aggregation and maintains ER homeostasis during the process of PC2 secretion. e, Confocal analysis of GFP-LAMP1 (green) and mCherry-PC2 (red) in vehicle- and Spautin-1-treated chondrocytes at the indicated time points (min) after the ER block release. The insets show a high magnification of the selected area. Scale bar, 5 μm. f, Quantification of GFP-LAMP1/mCherry-PC2 co-localization. Values represent mean±s.d. from three independent experiments. N=30. […] The data are representative of 2 independent experiments. Scale bar, 10 μm.
Live cell imaging: Rx chondrocytes were reverse transfected and plated in Mattek glass bottomed dishes. Collagen transport assays were performed by incubating cells at 40° C. on the heated stage for 2.5 h. Collagen release was initiated by lowering the temperature of the stage to 32° C. and medium being supplemented with 50 μg/ml ascorbate.
Procollagen secretion assay: To follow PC2 secretion in Rx chondrocytes, cells were pretreated ON with ascorbate (100 μg/ml) in DMEM without FCS. […]

GusbKO chondrocytes = assay: Protein degradation and mTORC1 signaling in GusbKO RCS chondrocytes with Mg132; assay type: cell-based, rat
Protocol: FIG. 23: G, WT and GusbKO RCS cells were pulse labelled for 18h with ^3H-Ser and chased for 48h in medium containing vehicle or 100 nM Mg-132. The rate of protein degradation is shown as the fraction of radiolabelled protein remaining over time. Values are expressed as mean (±s.e.m.) of n=3 independent experiments (Student's t-test, * p<0.05, ** p<0.005). H, Luminescent signal resulting from the cleavage of a luminescent Suc-LLVY peptide by the chymotrypsin-like activity of the proteasome was measured in WT and GusbKO RCS cells after 6h treatment with aminoacids. Data are representative of 3 independent experiments and are graphed as relative fluorescence units (RFU) (Student's t-test, * p<0.05). I, Western blot analysis of mTORC1 signaling in WT and GusbKO RCS cells treated with Mg-132 (10 μM) or DMSO (−) for 6h. Arrowheads indicate specific band. J, Bar graphs displaying quantification of relative phosphorylation. Values are expressed as mean (±s.e.m.) of n=3 independent experiments (Student's t-test, * p<0.05, ** p<0.005).

[5] = tested on: growth plate chondrocytes; assay: LC3II in femoral growth plates after leupeptin injection; assay type: in vivo, mouse
Protocol: FIG. 9: a, Comparative TEM images of P0 and P6 wild type growth plate chondrocytes showing increased autophagosomes (AV) biogenesis at P6. Arrows indicate AVs. Bar graphs show number and size of AVs within 5.3 μm field of view (values represent mean±s.e.m. Student's t-test **p<0.005). b, Western blot analysis of LC3I/II of femoral growth plates from mice at indicated ages. Mice were injected with leupeptin (40 mg/kg i.p. 6h before sacrifice) where indicated. β-actin was used as loading control. Bar graphs show quantification of LC3II protein relative to β-actin (mean±s.e.m. *p<0.05 Student's t-test. n=3/group). c, Representative Western blot analysis of Atg7, LC3 and SQSTM1 (p62) proteins in Atg7 f/f, Col2a1-Cre; Atg7 f/f and Prx1-Cre; Atg7 f/f growth plate lysates. […]
FIG. 15: a, Representative images of high content imaging analysis of primary chondrocytes isolated from GFP-LC3 transgenic mice and treated with vehicle or FGF18 (25 ng /ml for 24 h). […] Scale bar 50 μm. b, Quantification of green vesicles (AVs) in cells treated with the indicated factors for 24h. Vesicles were counted in at least 1000 cells/treatment. […] Bar graphs show % of red vesicles (autolysosomes) and of total vesicles relative to vehicle (Values represent mean values±s.d. At least 10 cells/experiment were analyzed from 3 independent experiments. *p<0.05 ***p<0.0005. Student's t-test). […]

VPS34-Beclin 1 complex = assay: Bcl2 phosphorylation, Beclin 1 co-immunoprecipitation and PI3K assay in Rx chondrocytes; assay type: cell-based, rat; conditions: 25 ng/ml
Rx chondrocytes [6] = assay: Tandem mRFP-EGFP-LC3 autophagic flux in Rx chondrocytes; assay type: cell-based, rat; conditions: 25 ng/ml for 24 h
Protocol: (§3) FIG. 15: a, Representative images of high content imaging analysis of primary chondrocytes isolated from GFP-LC3 transgenic mice and treated with vehicle or FGF18 (25 ng /ml for 24 h). BafA1 was used where indicated for 4 h (200 nM). Green spots represent GFP labeled AVs. Scale bar 50 μm. b, Quantification of green vesicles (AVs) in cells treated with the indicated factors for 24h. Vesicles were counted in at least 1000 cells/treatment. Values represent mean values±s.d. of n=3 independent experiments; Statistical analysis was performed using repeated measure ANOVA with TUKEYs post-hoc test. **p<0.005. c, Western blot analysis of primary chondrocytes isolated from wild type mice treated as indicated (FGF18 25 ng/ml, 24 h). Where indicated BafA1 was added (200 nM, 4h). […] Bar graphs show % of red vesicles (autolysosomes) and of total vesicles relative to vehicle (Values represent mean values±s.d. At least 10 cells/experiment were analyzed from 3 independent experiments. *p<0.05 ***p<0.0005. Student's t-test). […] Quantification of data (mean±s.e.m of n=5 mice/group. *p<0.05, Student's t-test) f, Western blot analysis of Fgf18+/+ and Fgf18+/− growth plate lysates. […]

[7] = tested on: primary chondrocytes isolated from GFP-LC3 mice; assay: High content GFP-LC3 vesicle count in primary chondrocytes; assay type: cell-based, mouse; conditions: in the presence of BafA1, 25 ng/ml for 24 h
Protocol: as §3, with “cells/treatment.” for “cells/treatment. Values represent mean values±s.d. of n=3 independent experiments; Statistical analysis was performed using repeated measure ANOVA with TUKEYs post-hoc test. **p<0.005. c, Western blot analysis of primary chondrocytes isolated from wild type mice treated as indicated (FGF18 25 ng/ml, 24 h). Where indicated BafA1 was added (200 nM, 4h).”
High content screening analysis in GFP-LC3 primary chondrocytes: Primary chondrocytes were plated in CellCarrier-96 Black plates (6005558, Perkin Elmer). […] To carry out the analysis the number of cytoplasmic GFP-LC3 spots in the cytoplasm of Col2 positive cells were counted, and expressed per cell. Levels of colocalization between GFP-LC3 and Col2a1 were assessed and expressed as %, using the parameters: area of colocalization of red spots with area of green spots normalized to total area of green spots. […]

[8] = tested on: rat model of osteoarthritis; conditions: intra articular injection; cited from earlier work
[9] = synchronized PC2 secretion, 24 h, 50 μM

Molecule: RRRQRRKKRGYGGTGFEGDHWIEFTANFVNT ([dR][dR][dR][dQ][dR][dR][dK][dK][dR]G[dY]GG[dT]G[dF][dE]G[dD][dH][dW][dI][dE][dF][dT][dA][dN][dF][dV][dN][dT]; also: retro-inverso)
- femoral and tibial growth retardation (MPSVII mice [1]): rescues
- collagen levels in femoral and tibia cartilages (MPSVII mice [2]): normalizes
- growth plate differentiation and proliferation defects (MPSVII mice [2]): normalizes
- femoral and tibial growth retardation (MPSVI mice): rescues

Molecule: bafilomycin
- level of LC3II protein compared to FGFR3 wild type stable cells [3]: did not increase

Molecule: Fc1ccc(CNc2ncnc3ccc(F)cc23)cc1 [Spautin-1]
- FGF18-induced increase of PC2 secretion (Rx chondrocytes [4]; Spautin-1 24h added to FGF18-stimulated cells): hampered this increase
- ER to cis-Golgi trafficking of HSP47 (Rx chondrocytes [4]; cultured chondrocytes): inhibited
- PC2 localization in the ER (Rx chondrocytes [4]; [9]): retention of PC2 in the ER
- PC2 secretion (Rx chondrocytes [4]; [9]): defective PC2 secretion

Molecule: CC(C)C[C@@H](C=O)NC(=O)[C@H](CC(C)C)NC(=O)[C@H](CC(C)C)NC(=O)OCc1ccccc1 [Mg132] (Cbz-Leu-Leu-Leu-aldehyde)
- increased protein degradation rate of GusbKO chondrocytes (GusbKO chondrocytes; 100 nM, 48h chase): completely blunted
- mTORC1 signaling (GusbKO chondrocytes; 10 μM, 6h): normalized

Molecule: CC(=O)N[C@@H](CC(C)C)C(=O)N[C@@H](CC(C)C)C(=O)N[C@H](C=O)CCCNC(=N)N [Leupeptin]
- LC3II levels in the growth plate of wild type mice ([5]; 40 mg/kg i.p. 6h before sacrifice, P2 and P6): further increased the levels of LC3II in the growth plate of P6 but not P2 mice
- LC3II levels in the growth plate of control and Fgf18+/- mice ([5]; 40 mg/kg i.p. 6 h before sacrifice, P6): significantly increased LC3II levels in the growth plate of P6 control but not in Fgfl 8 mice
- level of LC3II protein compared to FGFR3 wild type stable cells [3]: did not increase

Molecule: FGF18: fibroblast growth factor 18 (Peprotech)
- interaction of Beclin 1-Bcl2 (VPS34-Beclin 1 complex; 2h): decreased
- VPS34-Beclin 1 complex activity (PI3P levels produced) (VPS34-Beclin 1 complex; 2 h, JNK dependent): increases
- phosphorylation of Bcl-2 (VPS34-Beclin 1 complex; 2h, JNK-dependent): increases
- autophagic flux (autolysosome number) (Rx chondrocytes [6]): enhanced
- efficiency of PC2 secretion compared to non-stimulated cells (Rx chondrocytes [4]; FGF18 25 ng/ml): higher efficiency
- AV number (autophagosome biogenesis) [7]: increase significantly
- repair of damaged cartilage [8]: can stimulate the repair of damaged cartilage
